Reference: US20030017567A1, “Biological sample processing methods and compositions that include surfactants” (3M Innovative Properties Company, priority 2001, published 2003)
Marks after values point to notes of the source that are not given here. Blank lines part the entries; values can stand above or below the molecule they belong to.

Tests used:
[1] = Laser stability / photobleaching of dye solution on repeated laser exposure; type: physicochemical; conditions: for Laser Stability: 25 exposures
Procedure: An 813-nm diode laser source at 1.2W (1.9A) (Opto Power Corp., Tucson, Ariz. ) was used to heat a 10μL volume of near-IR dye at a concentration (0.1 mg/mL for 785 WS, 0.2 mg/iL for SDA 8080) to yield a 35° C. rise in temperature. The laser was manually turned on long enough for the temperature in a 10-μL well to increase by 35° C. (1-3 seconds) and was manually turned off when that level was attained. The temperature data was obtained using a thermocouple in the well, and the transmittance data was obtained via a power meter whose signals were digitized and graphically interpreted.
In another experiment, the 10 μL well was used to see if the dye/surfactant mixture could withstand laser cycling over a period of 30 cycles. The laser power was systematically varied from 60° C. to 94° C., 30 times.
Unlike in Example 8, some dyes and dye/surfactant complexes undergo photodegradation when exposed to laser beam. […] Specifically, in the case of 785 WS/BRIJ-97, the addition of ascorbic acid (typically 5 mg/mL) helped reduce the amount of photobleaching from 100% to 20% after 30 cycles. In some circumstances, rapid/controlled photodegradation may be desired. […] This would allow DNA tags (fluorescent or vis/IR) to be monitored at the end of the PCR reaction.
Vitamin E-TPGS has both surfactant as well as antioxidant properties.

[2] = target: T1, AMPLITAQ DNA polymerase (Taq polymerase) (Thermus aquaticus, UniProt P19821); experiment: PCR amplification of PERV protease fragment (327 bp) in presence of dye/surfactant; product on agarose gel or quantitated with Agilent 2100 Bioanalyzer; type: biochemical; conditions: for effect of dye on PCR (Example 6): dye at typical concentrations of 0.1 or 0.2 mg/mL, without surfactant, agarose gel
T1 construct: purchased Applied Biosystems, Foster City, Calif
T1 sequence (P19821 whole entry, the tested form may be a part): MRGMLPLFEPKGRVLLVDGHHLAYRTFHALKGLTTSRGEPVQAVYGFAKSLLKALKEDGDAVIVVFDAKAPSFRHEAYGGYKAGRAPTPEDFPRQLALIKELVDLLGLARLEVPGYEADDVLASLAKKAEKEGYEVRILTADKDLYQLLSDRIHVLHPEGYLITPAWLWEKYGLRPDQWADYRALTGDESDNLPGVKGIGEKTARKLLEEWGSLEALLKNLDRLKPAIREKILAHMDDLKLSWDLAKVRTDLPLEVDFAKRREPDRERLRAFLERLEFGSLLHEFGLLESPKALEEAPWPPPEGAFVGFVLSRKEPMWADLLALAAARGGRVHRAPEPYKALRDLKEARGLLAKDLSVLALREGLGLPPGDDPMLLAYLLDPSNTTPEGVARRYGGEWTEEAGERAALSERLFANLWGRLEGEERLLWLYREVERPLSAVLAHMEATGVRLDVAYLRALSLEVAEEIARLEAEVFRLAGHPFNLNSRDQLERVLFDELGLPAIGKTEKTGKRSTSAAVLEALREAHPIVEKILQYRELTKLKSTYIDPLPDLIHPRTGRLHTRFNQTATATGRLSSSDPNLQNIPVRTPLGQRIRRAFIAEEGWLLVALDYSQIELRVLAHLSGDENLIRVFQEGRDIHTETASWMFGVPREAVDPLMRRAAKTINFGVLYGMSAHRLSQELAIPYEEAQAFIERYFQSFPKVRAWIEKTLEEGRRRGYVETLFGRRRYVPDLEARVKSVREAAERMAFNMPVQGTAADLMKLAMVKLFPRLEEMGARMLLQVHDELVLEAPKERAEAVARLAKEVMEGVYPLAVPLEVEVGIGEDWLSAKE
Procedure: Typically, a fresh stock solution of 5 milligrams (mg) of a water-insoluble near-infrared dye (NIR dye) was dissolved in 50 microliters (μL) of dimethylsulfoxide (DMSO) and brought up in water to a final volume of 1 milliliter (mL). This was then diluted out to various concentrations of dye. The diluted dye (typically 0.2 mg/mL) was then added to a surfactant solution (typically 4 wt-%) to form a complex. The complex was added to a PCR reaction.
PCR reactions were set up for a conserved sequence (327 bp) in the protease region of the genome of porcine endogenous retrovirus using a plasmid containing the PERV protease fragment, a forward primer and a reverse primer designed using a primer express program from Applied Biosystems, and AMPLITAQ DNA polymerase cocktail (commercially available from Applied Biosystems, Foster City, Calif.) and cycled in a thermocycler (9700, Applied Biosystems). The PCR reactions were typically carried out in 25-μL volumes. The NIR dye/surfactant mixture was added to the PCR cocktail to give the desired concentration of dye and surfactant in a total volume of 25 μL. A typical PCR cocktail contains 10x buffer, 2.5 μL; dNTPs, 2.0 μL (200 μM of each); forward primer, 0.5 μL (200 nM); reverse primer, 0.5 μL (200 nM); template DNA, 1.0 (1 ng/μL); Amplitaq, 0.25 μL (1.25 units); sterile water, 18.25 μL.
The products of PCR reactions were run on 1% agarose gel containing ethidium bromide and visualized using an ALPHA IMAGER (Alpha Innotech Corp., San Leandro, Calif.). […] However, a higher concentration of dye (0.1 mg/mL) for effective heating was needed. Thus, for all further PCR experiments, a dye concentration of 0.1 mg/mL or higher was used. […] Taq polymerase was tested from different manufacturers (Promega Corp., Madison, Wis.; Roche Biochemicals, Indianapolis, Ind.; Eppendorf, Scientific Inc., Westbury, N.Y.; Sigma, St. Louis, Mo.) and all the Taq polymerases were inhibited by 785 WS and SDA 8080.
In order to find out the optimum concentration of surfactant for PCR with NIR dye (785 WS and SDA 8080), the surfactant concentration in PCR reaction was varied from 0.1 wt-% to 4 wt-%. The PCR product formed was quantitated using DNA 7500 Labchip kit in Agilent 2100 Bioanalyzer (Agilent Inc, Paloalto, Calif.). The results shown in Table 3 indicate that increasing the concentration of surfactant relative to dye assists in the formation of PCR product.
A variety of dyes (NIR dyes such as IR782, IR768, SDA 2141, SDA8327, IR 830 WS, fluorescent dyes like oligreen and visible dyes like dichlorophenol, indophenol, saffranin, crystal violet, and commercially available food coloring) at typical concentrations of 0.1 or 0.2 mg/mL were allowed to interact with 4 wt-% PLURONIC F127 and each mixture was added to the PCR cocktail. The reaction was set up to amplify PERV protease fragment as described in Example 2 and the products of the reaction were analyzed by agarose gel electrophoresis.

[3] = Thermal degradation of dye: absorbance at beginning and end of thermal cycling; type: physicochemical
From the text: The dyes SDA 8080 and 785 WS were mixed with a variety of surfactants such as PLURONIC F-127, TWEEN-20, TRITON X-100, NP-40, BRIJ-97 and cycled in a thermocycler (9700, Applied Biosystems). Absorbance readings were taken at the beginning and end of thermal cycling using HP Chem Station (HP 8453, Agilent Technologies, Palo Alto, Calif.) at 785 nm for the 785 WS dye and 1040 nm for the SDA 8080 dye. […] Thus, the surfactant helps to protect thermal degradation of the dye.

[4] = 785 WS 0.1 mg/mL, surfactant 0.1 wt %
[5] = 785 WS 0.1 mg/mL, surfactant 0.5 wt %
[6] = 785 WS 0.1 mg/mL, surfactant 1 wt %
[7] = 785 WS 0.1 mg/mL, surfactant 2 wt %
[8] = 785 WS 0.1 mg/mL, surfactant 4 wt %
[9] = SDA 8080 0.2 mg/mL, surfactant 0.5 wt %
[10] = SDA 8080 0.2 mg/mL, surfactant 1 wt %
[11] = SDA 8080 0.2 mg/mL, surfactant 2 wt %
[12] = SDA 8080 0.2 mg/mL, surfactant 4 wt %
[13] = surfactant 4 wt %, 785 WS 0 mg/mL (no dye), data from a different experiment under identical PCR conditions
[14] = surfactant 4 wt %, SDA 8080 0 mg/mL (no dye), data from a different experiment under identical PCR conditions
[15] = 785 WS (0.1 mg/mL), surfactant 0.1 wt %, absorbance at 785 nm
[16] = 785 WS (0.1 mg/mL), surfactant 4 wt %, absorbance at 785 nm
[17] = SDA 8080 (0.2 mg/mL), surfactant 0.1 wt %, absorbance at 1040 nm
[18] = SDA 8080 (0.2 mg/mL), surfactant 4 wt %, absorbance at 1040 nm
[19] = SDA 8080 0.2 mg/mL, surfactant 0.1 wt %
[20] = 785 WS (0.1 mg/mL), surfactant 20 wt %, * can be made laser stable after addition of antioxidant
[21] = SDA 8080 (0.2 mg/mL), surfactant 20 wt %
[22] = 785 WS (0.1 mg/mL), surfactant 0.5 wt %, absorbance at 785 nm
[23] = 785 WS (0.1 mg/mL), surfactant 2 wt %, absorbance at 785 nm
[24] = SDA 8080 (0.2 mg/mL), surfactant 0.5 wt %, absorbance at 1040 nm
[25] = SDA 8080 (0.2 mg/mL), surfactant 2 wt %, absorbance at 1040 nm

effect of antioxidant on photobleaching of 785 WS ([1]; added to virtually any of the surfactants tested with 785 WS): reduced photobleaching significantly
Molecule: O=C1O[C@H]([C@@H](O)CO)C(O)=C1O [ascorbic acid]

Molecule: CN(C)c1ccc(C(=C2C=CC(=[N+](C)C)C=C2)c2ccc(N(C)C)cc2)cc1 [crystal violet]
effect of dye on PCR (Example 6) [2]: inhibited PCR

Molecule: Cc1cc2nc3cc(C)c(N)cc3[n+](-c3ccccc3)c2cc1N.[Cl-] [saffranin]
effect of dye on PCR (Example 6) [2]: inhibited PCR

Molecule: Nonyl phenoxy poly (ethyleneoxy) ethanol [NP-40]
PCR Product [2, 4]: 0 ng/µL
PCR Product [2, 5]: 0 ng/µL
PCR Product [2, 6]: 0 ng/µL
PCR Product [2, 7]: 0.3 ng/µL
PCR Product [2, 8]: 3.8 ng/µL
PCR Product ([2]; SDA 8080 0.1 mg/mL, surfactant 0.1 wt %): 0 ng/µL
PCR Product [2, 9]: 23.3 ng/µL
PCR Product [2, 10]: 23.7 ng/µL
PCR Product [2, 11]: 17.2 ng/µL
PCR Product [2, 12]: 18 ng/µL
PCR Product [2, 13]: 24.2* ng/μL
PCR Product [2, 14]: 24.2* ng/μL
Thermal Degradation [3, 15]: 20.2%
Thermal Degradation [3, 16]: 27.4%
Thermal Degradation [3, 17]: 82.1%
Thermal Degradation [3, 18]: 48.8%

Molecule: Octyl phenoxy polyethoxyethanol [TRITON X-100]
PCR Product [2, 4]: 0 ng/µL
PCR Product [2, 5]: 0.1 ng/µL
PCR Product [2, 6]: 0.4 ng/µL
PCR Product [2, 7]: 2.2 ng/µL
PCR Product [2, 8]: 1.3 ng/µL
PCR Product [2, 19]: 0 ng/µL
PCR Product [2, 9]: 2.3 ng/µL
PCR Product [2, 10]: 1.4 ng/µL
PCR Product [2, 11]: 1.9 ng/µL
PCR Product [2, 12]: 1.1 ng/µL
PCR Product [2, 13]: 23.8* ng/μL
PCR Product [2, 14]: 23.8* ng/μL
Laser Stability [1, 20]: −* (greater than 20% degradation in dye absorbance over a period of 25 exposures)
Laser Stability [1, 21]: + (less than a 20% degradation in dye absorbance over a period of 25 exposures)
Thermal Degradation [3, 15]: 24.8%
Thermal Degradation [3, 16]: 4.6%
Thermal Degradation [3, 17]: 76.0%
Thermal Degradation [3, 18]: 0.0%
Thermal Degradation ([3]; SDA 8080 (0.2 mg/mL), surfactant 20 wt %, absorbance at 1040 nm): 7.1%

Molecule: Polyoxyethylene (10) oleyl ether [BRIJ 97]
PCR Product [2, 4]: 0 ng/µL
PCR Product [2, 5]: 0 ng/µL
PCR Product [2, 6]: 0 ng/µL
PCR Product [2, 7]: 13.8 ng/µL
PCR Product [2, 8]: 21.9 ng/µL
PCR Product [2, 19]: 18.7 ng/µL
PCR Product [2, 9]: 19.3 ng/µL
PCR Product [2, 10]: 23.5 ng/µL
PCR Product [2, 11]: 25.5 ng/µL
PCR Product [2, 12]: 22.6 ng/µL
Laser Stability [1, 20]: −* (greater than 20% degradation in dye absorbance over a period of 25 exposures)
Laser Stability [1, 21]: + (less than a 20% degradation in dye absorbance over a period of 25 exposures)
Thermal Degradation ([3]; 785 WS (0.1 mg/mL), surfactant 0.01 wt %, absorbance at 785 nm): 79.0%
Thermal Degradation [3, 22]: 95.0%
Thermal Degradation ([3]; 785 WS (0.1 mg/mL), surfactant 1 wt %, absorbance at 785 nm): 94.5%
Thermal Degradation [3, 23]: 94.5%
Thermal Degradation [3, 16]: 96.0%
Thermal Degradation ([3]; SDA 8080 (0.2 mg/mL), surfactant 0.01 wt %, absorbance at 1040 nm): 86.2%
Thermal Degradation [3, 24]: 67.7%
Thermal Degradation ([3]; SDA 8080 (0.2 mg/mL), surfactant 1 wt %, absorbance at 1040 nm): 50.0%
Thermal Degradation [3, 25]: 29.4%
Thermal Degradation [3, 18]: 6.0%

light stability ([1]; Vitamin E-TPGS 4 wt-% added to 785 WS 0.1 mg/mL, after 30 cycles of laser exposure): significantly increased
Thermal Degradation [3, 22]: 6.5%
Thermal Degradation [3, 23]: 4.0%
Thermal Degradation [3, 16]: 5.3%
Thermal Degradation [3, 24]: 89.5%
Thermal Degradation [3, 25]: 88.9%
Thermal Degradation [3, 18]: 92.3%
Molecule: d-Alpha tocopheryl polyethylene glycol 1000 [Vitamin E TPGS]
Laser Stability ([1]; 785 WS (0.1 mg/mL), surfactant 4 wt %, * can be made laser stable after addition of antioxidant): + (less than a 20% degradation in dye absorbance over a period of 25 exposures)

Molecule: dichlorophenol
effect of dye on PCR (Example 6) [2]: inhibited PCR
